pIC50: −log10 of the molar value.
Assays:
[1] = tested on: bladder carcinoma RT4 cell line; assay: TNF-α-induced cytotoxicity assay (CellTiter-Glo viability); format: cell-based; settings: Homo sapiens, RT-4, 72 h
Outline: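 RT4 bladder carcinoma cells, 1000 per well, stimulated with 1.25 ng/mL TNFα together with compound for 72 h at 37° C., 5% CO2. Viability read by CellTiter-Glo luminescence, proportional to cellular ATP, as a measure of HOIP-dependent cytotoxicity.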

[2] = target: T1, human E3 ubiquitin-protein ligase RNF31 (HOIP) (Homo sapiens, UniProt Q96EP0); assay: Cell-free HTRF-based HOIP inhibition assay; format: biochemical
T1 sequence (Q96EP0 695-1072 limits assumed): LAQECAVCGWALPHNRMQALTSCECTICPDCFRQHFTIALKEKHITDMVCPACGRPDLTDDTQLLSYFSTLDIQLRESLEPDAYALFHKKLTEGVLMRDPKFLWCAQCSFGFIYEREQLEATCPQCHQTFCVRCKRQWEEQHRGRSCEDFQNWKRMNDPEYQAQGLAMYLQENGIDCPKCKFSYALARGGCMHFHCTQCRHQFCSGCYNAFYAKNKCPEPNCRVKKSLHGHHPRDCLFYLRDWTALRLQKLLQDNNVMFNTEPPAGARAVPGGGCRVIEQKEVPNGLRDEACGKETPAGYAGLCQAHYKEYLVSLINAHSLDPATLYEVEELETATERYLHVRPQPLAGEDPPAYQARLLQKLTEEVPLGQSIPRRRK
Outline: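 Recombinant human HOIP fragment (E. coli) preincubated with compounds (100-0.005 μM, 1% DMSO) and E1 for 1 h at 25° C. E2 and substrates then added; reaction 2.5 h at 25° C. HTRF read-out, excitation 337 nm, emissions 665/620 nm.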

NF-κB signaling pathway = assay: Cell-based dual luciferase NF-κB reporter assay (HEK293 cells, TNF stimulated); settings: Homo sapiens, HEK293
Outline: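 HEK293 cells transfected with Firefly luciferase and NF-κB-response-element NanoLuc plasmids; compounds at 100–0.005 µM in 1% DMSO. Cells stimulated with 2.5 ng/mL TNF 30 min after compound addition. Firefly and NanoLuc activities read after 6 h by Nano-Glo dual-luciferase detection.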

| pIC50 [2] | pIC50 (NF-κB signaling pathway) | SMILES | pIC50 [1] |
| --- | --- | --- | --- |
| ≥ 7.00 | ≥ 6.00 | O=C(NC/C=C/S(=O)(=O)c1ccccc1)c1cc2c([nH]c1=O)CCN(C(=O)OC1CCCC1)C2 [Example 84, cyclopentyl 3-{[(2E)-3-(benzenesulfonyl)prop-2-en-1-yl]carbamoyl}-2-oxo-1,2,5,6,7,8-hexahydro-1,6-naphthyridine-6-carboxylate] | ≥ 6.00 |
| ≥ 7.00 | ≥ 6.00 | CC1(C)CC1COC(=O)N1CCc2[nH]c(=O)c(C(=O)NC/C=C/S(=O)(=O)c3ccc(Cl)cc3)cc2C1 (stereo not drawn) [Example 85, (2,2-dimethylcyclopropyl)methyl 3-{[(2E)-3-(4-chlorobenzenesulfonyl)prop-2-en-1-yl]carbamoyl}-2-oxo-1,2,5,6,7,8-hexahydro-1,6-naphthyridine-6-carboxylate] | ≥ 6.00 |
| ≥ 7.00 | ≥ 6.00 | O=C(NC/C=C/S(=O)(=O)c1ccc(Cl)cc1)c1cc2c([nH]c1=O)CCN(C(=O)OCC1CC1(F)F)C2 (stereo not drawn) [Example 86, (2,2-difluorocyclopropyl)methyl 3-{[(2E)-3-(4-chlorobenzenesulfonyl)prop-2-en-1-yl]carbamoyl}-2-oxo-1,2,5,6,7,8-hexahydro-1,6-naphthyridine-6-carboxylate] | ≥ 5.00 |
| ≥ 7.00 | ≥ 5.00 | O=C(NC/C=C/S(=O)(=O)c1ccc(Cl)cc1)c1cc2c([nH]c1=O)CCN(C(=O)OC1COC1)C2 [Example 87, oxetan-3-vi 3-{[(2E)-3-(4-chlorobenzenesulfonyl)prop-2-en-1-yl]carbamoyl}-2-oxo-1,2,5,6,7,8-hexahydro-1,6-naphthyridine-6-carboxylate] | ≥ 4.00 |
| ≥ 7.00 | ≥ 6.00 | O=C(NC/C=C/S(=O)(=O)c1ccc(Cl)cc1)c1cc2c([nH]c1=O)CCN(C(=O)OCC1CC1)C2 [Example 88, cyclopropylmethyl 3-{[(2E)-3-(4-chlorobenzenesulfonyl)prop-2-en-1-yl]carbamoyl}-2-oxo-1,2,5,6,7,8-hexahydro-1,6-naphthyridine-6-carboxylate] | ≥ 6.00 |
| ≥ 6.00 | ≥ 5.00 | O=C(NC/C=C/S(=O)(=O)c1ccccc1)c1cc2c([nH]c1=O)CCN(C(=O)OCCc1ccco1)C2 [Example 89, 2-(furan-2-yl)ethyl 3-{[(2E)-3-(benzenesulfonyl)prop-2-en-1-yl]carbamoyl}-2-oxo-1,2,5,6,7,8-hexahydro-1,6-naphthyridine-6-carboxylate] | ≥ 6.00 |
| ≥ 7.00 | ≥ 6.00 | O=C(NC/C=C/S(=O)(=O)c1ccccc1)c1cc2c([nH]c1=O)CCN(C(=O)OC1CCCCC1)C2 [Example 90, cyclohexyl 3-{[(2E)-3-(benzenesulfonyl)prop-2-en-1-yl]carbamoyl}-2-oxo-1,2,5,6,7,8-hexahydro-1,6-naphthyridine-6-carboxylate] | ≥ 6.00 |
| ≥ 6.00 | ≥ 6.00 | CC(OC(=O)N1CCc2[nH]c(=O)c(C(=O)NC/C=C/S(=O)(=O)c3ccccc3)cc2C1)c1c(F)cccc1F (stereo not drawn) [Example 91, 1-(2,6-difluorophenyl)ethyl 3-{[(2E)-3-(benzenesulfonyl)prop-2-en-1-yl]carbamoyl}-2-oxo-1,2,5,6,7,8-hexahydro-1,6-naphthyridine-6-carboxylate] | ≥ 6.00 |
| ≥ 7.00 | ≥ 5.00 | CC(=O)N1CCC(OC(=O)N2CCc3[nH]c(=O)c(C(=O)NC/C=C/S(=O)(=O)c4ccc(Cl)cc4)cc3C2)CC1 [Example 92, 1-acetylpiperidin-4-vi 3-{[(2E)-3-(4-chlorobenzenesulfonyl)prop-2-en-1-yl]carbamoyl}-2-oxo-1,2,5,6,7,8-hexahydro-1,6-naphthyridine-6-carboxylate] | ≥ 4.00 |
| ≥ 7.00 | ≥ 6.00 | O=C(NC/C=C/S(=O)(=O)c1ccc(Cl)cc1)c1cc2c([nH]c1=O)CCN(C(=O)OCCF)C2 [Example 93, 2-fluoroethyl 3-{[(2E)-3-(4-chlorobenzenesulfonyl)prop-2-en-1-yl]carbamoyl}-2-oxo-1,2,5,6,7,8-hexahydro-1,6-naphthyridine-6-carboxylate] | ≥ 6.00 |
| ≥ 7.00 | ≥ 6.00 | COCC(C)OC(=O)N1CCc2[nH]c(=O)c(C(=O)NC/C=C/S(=O)(=O)c3ccc(Cl)cc3)cc2C1 (stereo not drawn) [Example 94, 1-methoxypropan-2-yl 3-{[(2E)-3-(4-chlorobenzenesulfonyl)prop-2-en-1-yl]carbamoyl}-2-oxo-1,2,5,6,7,8-hexahydro-1,6-naphthyridine-6-carboxylate] | ≥ 5.00 |
| ≥ 7.00 | ≥ 6.00 | O=C(NC/C=C/S(=O)(=O)c1ccc(Cl)cn1)c1cc2c([nH]c1=O)CCN(C(=O)OCC1CC1)C2 [Example 95, cyclopropylmethyl 3-{[(2E)-3-[(5-chloropyridin-2-yl)sulfonyl]prop-2-en-1-yl]carbamoyl}-2-oxo-1,2,5,6,7,8-hexahydro-1,6-naphthyridine-6-carboxylate] | ≥ 5.00 |
| ≥ 6.00 | ≥ 6.00 | O=C(NC/C=C/S(=O)(=O)c1ccc(Cl)cc1)c1cc2c([nH]c1=O)CCN(C(=O)OCC(F)F)C2 [Example 96, 2,2-difluoroethyl 3-{[(2E)-3-(4-chlorobenzenesulfonyl)prop-2-en-1-yl]carbamoyl}-2-oxo-1,2,5,6,7,8-hexahydro-1,6-naphthyridine-6-carboxylate] | ≥ 5.00 |
| ≥ 7.00 | ≥ 6.00 | O=C(NC/C=C/S(=O)(=O)c1ccc(Cl)cc1)c1cc2c([nH]c1=O)CCN(C(=O)OCC(F)(F)F)C2 [Example 97, 2,2,2-trifluoroethyl 3-{[(2E)-3-(4-chlorobenzenesulfonyl)prop-2-en-1-yl]carbamoyl}-2-oxo-1,2,5,6,7,8-hexahydro-1,6-naphthyridine-6-carboxylate] | ≥ 5.00 |
| ≥ 7.00 | ≥ 6.00 | COc1ccc(S(=N)(=O)/C=C/CNC(=O)c2cc3c([nH]c2=O)CCN(C(=O)OCC2CC2)C3)cc1F (stereo not drawn) [Example 98, cyclopropylmethyl 3-{[(2E)-3-[(3-fluoro-4-methoxyphenyl)(imino)oxo-λ^6-sulfanyl]prop-2-en-1-yl]carbamoyl}-2-oxo-1,2,5,6,7,8-hexahydro-1,6-naphthyridine-6-carboxylate] | ≥ 5.00 |
| ≥ 6.00 | ≥ 5.00 | CC(C)(C)NC(=O)N1CCc2[nH]c(=O)c(C(=O)NC/C=C/S(=O)(=O)c3ccc(Cl)cc3)cc2C1 [Example 99, N6-tert-butyl-N3-[(2E)-3-(4-chlorobenzenesulfonyl)prop-2-en-1-yl]-2-oxo-1,2,5,6,7,8-hexahydro-1,6-naphthyridine-3,6-dicarboxamide] | ≥ 5.00 |
| ≥ 6.00 | ≥ 4.00 | O=C(NC/C=C/S(=O)(=O)c1ccc(Cl)cc1)c1cc2c([nH]c1=O)CCN(C(=O)NCC1CC1)C2 [Example 100, N3-[(2E)-3-(4-chlorobenzenesulfonyl)prop-2-en-1-yl]-N6-(cyclopropylmethyl)-2-oxo-1,2,5,6,7,8-hexahydro-1,6-naphthyridine-3,6-dicarboxamide] | ≥ 4.00 |
| ≥ 6.00 | ≥ 4.00 | O=C(NC/C=C/S(=O)(=O)c1ccc(Cl)cc1)c1cc2c([nH]c1=O)CCN(C(=O)NC1CC1)C2 [Example 101, N3-[(2E)-3-(4-chlorobenzenesulfonyl)prop-2-en-1-yl]-N6-cyclopropyl-2-oxo-1,2,5,6,7,8-hexahydro-1,6-naphthyridine-3,6-dicarboxamide] | ≥ 4.00 |
| ≥ 6.00 | ≥ 4.00 | COCCS(=O)(=O)N1CCc2[nH]c(=O)c(C(=O)NC/C=C/S(=O)(=O)c3ccccc3)cc2C1 [Example 103, N-[(2E)-3-(benzenesulfonyl)prop-2-en-1-yl]-6-(2-methoxyethanesulfonyl)-2-oxo-1,2,5,6,7,8-hexahydro-1,6-naphthyridine-3-carboxamide] | ≥ 4.00 |
| ≥ 6.00 | ≥ 5.00 | O=C(NC/C=C/S(=O)(=O)c1ccccc1)c1cc2c([nH]c1=O)CCN(Cc1cccnc1)C2 [Example 104, N-[(2E)-3-(benzenesulfonyl)prop-2-en-1-yl]-2-oxo-6-[(pyridin-3-yl)methyl]-1,2,5,6,7,8-hexahydro-1,6-naphthyridine-3-carboxamide] | ≥ 5.00 |
| ≥ 6.00 | ≥ 4.00 | CO[C@H]1CC[C@H](C(=O)N2CCc3[nH]c(=O)c(C(=O)NC/C=C/S(=O)(=O)c4ccccc4)cc3C2)CC1 [Example 107, N-[(2E)-3-(benzenesulfonyl)prop-2-en-1-yl]-2-oxo-6-[(1r,4r)-4-methoxycyclohexanecarbonyl]-1,2,5,6,7,8-hexahydro-1,6-naphthyridine-3-carboxamide] | ≥ 4.00 |

— US20260250250A1, “3-(SULPHONYL OR SULFONIMIDOYL)PROP-2-EN-1-YL]-2-OXO-1,2-DIHYDROPYRIDINE-3-CARBOXAMIDE DERIVATIVES” (Flinder Therapeutics B.V., priority 2022, published 2026)
